Source: ChEMBL document CHEMBL5465560, “Selectivity Literature for EUbOPEN Chemogenomic Library” (2024)

Tests used:
[1] = target: T1, Mitogen-activated protein kinase kinase kinase kinase 2 (Homo sapiens) (UniProt Q12851); experiment: Selectivity interaction (KinomeScan (DiscoverX)) EUB0001049a MAP4K2; details: at 1 µM
T1 sequence (whole entry): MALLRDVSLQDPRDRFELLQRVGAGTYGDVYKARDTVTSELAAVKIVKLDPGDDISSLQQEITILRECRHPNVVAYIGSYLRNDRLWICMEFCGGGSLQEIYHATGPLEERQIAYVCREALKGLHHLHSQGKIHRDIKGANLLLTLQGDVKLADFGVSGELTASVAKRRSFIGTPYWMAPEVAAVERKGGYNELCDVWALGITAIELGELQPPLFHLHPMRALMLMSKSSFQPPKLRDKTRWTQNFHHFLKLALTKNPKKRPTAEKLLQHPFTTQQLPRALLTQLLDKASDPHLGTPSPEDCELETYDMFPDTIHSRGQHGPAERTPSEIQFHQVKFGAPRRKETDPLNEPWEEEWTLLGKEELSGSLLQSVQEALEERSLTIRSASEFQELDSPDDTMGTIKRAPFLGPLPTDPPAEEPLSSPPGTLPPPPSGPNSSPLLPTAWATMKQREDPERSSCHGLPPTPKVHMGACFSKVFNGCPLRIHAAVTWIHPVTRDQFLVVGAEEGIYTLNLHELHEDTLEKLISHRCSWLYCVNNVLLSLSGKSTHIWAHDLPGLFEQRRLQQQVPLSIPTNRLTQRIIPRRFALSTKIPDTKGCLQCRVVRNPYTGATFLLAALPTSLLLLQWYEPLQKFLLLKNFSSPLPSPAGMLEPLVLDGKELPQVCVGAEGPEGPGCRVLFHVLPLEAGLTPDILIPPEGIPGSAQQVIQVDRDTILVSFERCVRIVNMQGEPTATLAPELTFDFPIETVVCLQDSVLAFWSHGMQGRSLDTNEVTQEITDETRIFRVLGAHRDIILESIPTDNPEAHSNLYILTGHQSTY

[2] = target: T2, Cyclin-dependent kinase 11A (Homo sapiens) (UniProt Q9UQ88); experiment: Selectivity interaction (Ambit KINOMEscan and KiNATiv profiling in Jurkat cells) EUB0000090b CDK11A; type: cell-based; details: at 1 µM
T2 sequence (whole entry): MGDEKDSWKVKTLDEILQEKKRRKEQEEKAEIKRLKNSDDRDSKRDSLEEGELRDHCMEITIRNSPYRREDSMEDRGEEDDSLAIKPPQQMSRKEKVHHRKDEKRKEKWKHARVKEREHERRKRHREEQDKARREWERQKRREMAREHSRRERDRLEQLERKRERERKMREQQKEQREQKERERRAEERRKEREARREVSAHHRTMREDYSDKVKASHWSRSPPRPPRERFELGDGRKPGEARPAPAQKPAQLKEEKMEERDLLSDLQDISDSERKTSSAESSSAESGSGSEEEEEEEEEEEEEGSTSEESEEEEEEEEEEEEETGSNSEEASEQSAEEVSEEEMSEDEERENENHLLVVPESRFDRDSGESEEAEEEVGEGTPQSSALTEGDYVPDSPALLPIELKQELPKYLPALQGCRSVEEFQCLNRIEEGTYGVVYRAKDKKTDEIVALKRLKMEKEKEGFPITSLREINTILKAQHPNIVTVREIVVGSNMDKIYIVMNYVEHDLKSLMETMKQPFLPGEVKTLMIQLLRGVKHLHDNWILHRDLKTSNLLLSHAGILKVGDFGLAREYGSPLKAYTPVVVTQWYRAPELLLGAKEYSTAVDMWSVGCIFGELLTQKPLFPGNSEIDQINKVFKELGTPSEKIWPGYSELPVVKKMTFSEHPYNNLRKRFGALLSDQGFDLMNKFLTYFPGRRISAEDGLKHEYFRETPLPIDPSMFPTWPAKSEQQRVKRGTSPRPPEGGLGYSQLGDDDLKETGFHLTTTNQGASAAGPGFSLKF

[3] = target: Serine/threonine-protein kinase OSR1 (Homo sapiens) (UniProt O95747); experiment: Selectivity interaction (LanthaScreen Eu Kinase Binding Assay) EUB0001632a OXSR1; details: at 10 µM
[4] = target: Serine/threonine-protein kinase MARK2 (Homo sapiens) (UniProt Q7KZI7); experiment: Selectivity interaction (KinomeScan (DiscoverX)) EUB0000229b MARK2; details: at 10 µM
[5] = target: Leukocyte tyrosine kinase receptor (Homo sapiens, UniProt P29376); experiment: Selectivity interaction (KinomeScan (DiscoverX)) EUB0000092b LTK; details: at 10 µM
[6] = target: T3, Aurora kinase A (Homo sapiens) (UniProt O14965); experiment: Selectivity interaction (KinomeScan (DiscoverX)) EUB0000045b STK6
T3 sequence (whole entry): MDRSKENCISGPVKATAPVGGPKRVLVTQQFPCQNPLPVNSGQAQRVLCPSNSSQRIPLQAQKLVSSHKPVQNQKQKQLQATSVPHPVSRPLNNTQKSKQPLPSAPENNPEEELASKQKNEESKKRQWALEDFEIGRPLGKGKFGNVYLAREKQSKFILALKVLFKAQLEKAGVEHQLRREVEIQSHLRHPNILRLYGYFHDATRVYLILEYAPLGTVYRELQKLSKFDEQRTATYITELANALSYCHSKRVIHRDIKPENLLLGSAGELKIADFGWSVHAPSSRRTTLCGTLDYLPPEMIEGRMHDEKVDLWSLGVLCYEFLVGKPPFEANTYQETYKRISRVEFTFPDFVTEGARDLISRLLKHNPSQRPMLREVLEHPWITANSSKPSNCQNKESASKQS

[7] = target: T4, Mitogen-activated protein kinase kinase kinase 7 (Homo sapiens) (UniProt O43318); experiment: Selectivity interaction (KinomeScan (DiscoverX)) EUB0000618a MAP3K7; details: at 10 µM
T4 sequence (whole entry): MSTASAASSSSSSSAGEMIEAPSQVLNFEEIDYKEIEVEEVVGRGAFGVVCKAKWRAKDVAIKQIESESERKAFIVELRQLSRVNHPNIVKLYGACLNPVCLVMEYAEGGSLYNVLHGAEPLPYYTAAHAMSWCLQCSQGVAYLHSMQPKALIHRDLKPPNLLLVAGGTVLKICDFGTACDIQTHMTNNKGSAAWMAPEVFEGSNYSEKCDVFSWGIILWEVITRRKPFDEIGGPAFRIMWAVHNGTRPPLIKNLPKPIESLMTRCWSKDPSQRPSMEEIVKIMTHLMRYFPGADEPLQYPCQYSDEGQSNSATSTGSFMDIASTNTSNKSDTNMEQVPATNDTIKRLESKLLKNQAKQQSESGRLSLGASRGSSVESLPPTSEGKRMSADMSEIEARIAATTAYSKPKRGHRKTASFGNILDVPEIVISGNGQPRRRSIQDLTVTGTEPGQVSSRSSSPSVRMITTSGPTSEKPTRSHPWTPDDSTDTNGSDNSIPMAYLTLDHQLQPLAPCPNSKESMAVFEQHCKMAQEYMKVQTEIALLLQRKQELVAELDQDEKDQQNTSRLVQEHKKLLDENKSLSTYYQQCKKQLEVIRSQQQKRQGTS

[8] = target: Phosphatidylinositol 4-phosphate 5-kinase type-1 gamma (Homo sapiens) (UniProt O60331); experiment: Selectivity interaction (KinomeScan (DiscoverX)) EUB0000666a PIP5K1C; details: at 10 µM
Chain of Phosphatidylinositol 4-phosphate 5-kinase type-1 gamma (Homo sapiens) (O60331 whole entry): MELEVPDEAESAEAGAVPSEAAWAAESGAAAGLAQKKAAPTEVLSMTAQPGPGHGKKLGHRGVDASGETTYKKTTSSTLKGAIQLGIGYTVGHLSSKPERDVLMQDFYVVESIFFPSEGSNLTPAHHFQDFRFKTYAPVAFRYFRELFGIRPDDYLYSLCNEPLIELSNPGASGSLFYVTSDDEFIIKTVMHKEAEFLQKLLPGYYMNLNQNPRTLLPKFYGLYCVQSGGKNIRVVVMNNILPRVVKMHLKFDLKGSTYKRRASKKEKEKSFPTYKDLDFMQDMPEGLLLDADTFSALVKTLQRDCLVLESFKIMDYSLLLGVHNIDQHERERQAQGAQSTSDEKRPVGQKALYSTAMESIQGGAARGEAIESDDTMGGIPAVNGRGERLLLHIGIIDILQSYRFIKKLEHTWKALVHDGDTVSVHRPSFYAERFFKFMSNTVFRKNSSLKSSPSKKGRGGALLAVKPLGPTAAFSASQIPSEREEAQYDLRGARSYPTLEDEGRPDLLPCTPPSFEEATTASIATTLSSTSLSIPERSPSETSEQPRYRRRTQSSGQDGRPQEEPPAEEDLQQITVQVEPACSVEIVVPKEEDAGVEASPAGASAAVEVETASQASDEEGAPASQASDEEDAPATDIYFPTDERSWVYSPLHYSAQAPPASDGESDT

Chain of Leukocyte tyrosine kinase receptor (P29376 whole entry): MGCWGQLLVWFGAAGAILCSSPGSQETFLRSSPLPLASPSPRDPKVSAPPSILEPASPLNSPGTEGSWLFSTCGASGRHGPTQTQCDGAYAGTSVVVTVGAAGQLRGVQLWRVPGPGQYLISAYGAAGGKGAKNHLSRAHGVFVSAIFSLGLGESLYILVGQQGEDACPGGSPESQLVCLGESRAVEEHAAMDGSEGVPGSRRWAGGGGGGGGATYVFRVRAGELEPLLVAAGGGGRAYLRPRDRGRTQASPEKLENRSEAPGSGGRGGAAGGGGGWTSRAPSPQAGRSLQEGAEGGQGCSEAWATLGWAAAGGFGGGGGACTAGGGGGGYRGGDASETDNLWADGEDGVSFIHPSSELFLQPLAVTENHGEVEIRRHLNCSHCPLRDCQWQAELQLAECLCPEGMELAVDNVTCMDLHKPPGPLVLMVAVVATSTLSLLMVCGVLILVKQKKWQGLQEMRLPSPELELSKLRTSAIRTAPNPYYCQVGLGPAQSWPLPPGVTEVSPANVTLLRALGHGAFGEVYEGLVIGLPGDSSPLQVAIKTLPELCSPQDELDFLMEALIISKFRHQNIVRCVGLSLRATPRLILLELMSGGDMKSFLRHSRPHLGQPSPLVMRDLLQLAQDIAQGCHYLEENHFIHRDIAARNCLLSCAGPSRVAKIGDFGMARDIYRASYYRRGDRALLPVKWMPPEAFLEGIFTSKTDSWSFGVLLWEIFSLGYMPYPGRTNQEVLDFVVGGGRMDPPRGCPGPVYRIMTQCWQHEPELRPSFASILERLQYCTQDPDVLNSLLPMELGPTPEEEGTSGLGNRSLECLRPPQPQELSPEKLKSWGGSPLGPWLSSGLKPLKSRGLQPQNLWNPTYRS
Chain of Serine/threonine-protein kinase OSR1 (Homo sapiens) (O95747 2-527 limits assumed): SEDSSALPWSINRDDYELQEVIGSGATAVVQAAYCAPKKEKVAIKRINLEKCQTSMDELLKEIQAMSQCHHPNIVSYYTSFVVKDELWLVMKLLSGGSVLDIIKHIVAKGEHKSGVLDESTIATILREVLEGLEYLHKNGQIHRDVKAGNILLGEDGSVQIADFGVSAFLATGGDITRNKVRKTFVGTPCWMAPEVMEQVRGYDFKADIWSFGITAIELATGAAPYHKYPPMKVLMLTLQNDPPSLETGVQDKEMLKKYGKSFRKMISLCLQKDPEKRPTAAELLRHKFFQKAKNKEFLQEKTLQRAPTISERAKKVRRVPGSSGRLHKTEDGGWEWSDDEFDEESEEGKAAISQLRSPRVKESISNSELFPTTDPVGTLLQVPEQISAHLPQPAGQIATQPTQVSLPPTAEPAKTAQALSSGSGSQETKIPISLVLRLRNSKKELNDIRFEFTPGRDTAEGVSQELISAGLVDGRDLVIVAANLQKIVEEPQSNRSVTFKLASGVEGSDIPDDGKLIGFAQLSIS
Chain of Serine/threonine-protein kinase MARK2 (Homo sapiens) (Q7KZI7 whole entry): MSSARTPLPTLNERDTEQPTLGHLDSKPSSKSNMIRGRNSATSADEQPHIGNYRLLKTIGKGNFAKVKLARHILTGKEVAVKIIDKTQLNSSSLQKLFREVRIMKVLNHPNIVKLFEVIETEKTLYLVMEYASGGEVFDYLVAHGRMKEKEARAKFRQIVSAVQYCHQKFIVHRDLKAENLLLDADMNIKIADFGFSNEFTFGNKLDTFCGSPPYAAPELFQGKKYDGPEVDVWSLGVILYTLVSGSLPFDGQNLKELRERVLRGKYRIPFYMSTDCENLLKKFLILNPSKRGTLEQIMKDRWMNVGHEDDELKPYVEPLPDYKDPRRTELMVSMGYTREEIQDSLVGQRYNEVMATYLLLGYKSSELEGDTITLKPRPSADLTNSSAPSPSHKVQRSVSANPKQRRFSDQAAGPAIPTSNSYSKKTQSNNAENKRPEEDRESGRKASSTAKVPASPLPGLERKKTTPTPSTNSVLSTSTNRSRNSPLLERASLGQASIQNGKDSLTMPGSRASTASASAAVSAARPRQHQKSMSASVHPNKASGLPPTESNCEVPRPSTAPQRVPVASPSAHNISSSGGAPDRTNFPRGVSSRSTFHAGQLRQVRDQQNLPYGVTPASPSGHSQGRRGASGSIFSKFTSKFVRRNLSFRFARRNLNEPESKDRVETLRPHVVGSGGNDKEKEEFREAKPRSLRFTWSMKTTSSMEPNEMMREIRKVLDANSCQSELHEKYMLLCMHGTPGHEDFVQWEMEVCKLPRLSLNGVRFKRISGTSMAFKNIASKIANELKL

Question: How did the % of control [1] turn out when `COc1cc(Nc2nc(C)cc(-c3cnn4nc(OC)ccc34)n2)cc(C(F)(F)F)c1` was run?
Answer: 99%

Question: `CN(C)C/C=C/C(=O)Nc1ccc(C(=O)N2CCCC(Nc3ncc(Cl)c(-c4c[nH]c5ccccc45)n3)C2)cc1` (centres undefined) was tested. Which % of control [2] did it give?
Answer: 100%

Question: Which % of inhibition [3] does the source give for `Cn1cc(-n2cnc3c(NCc4nc5cc(Cl)c(Cl)cc5[nH]4)nc(N4CCOCC4)nc32)cn1` here?
Answer: -23%

Question: `COc1cc(N(C)c2ccnc3ccc(C(F)(F)F)cc23)cc(OC)c1OC` was tested. Which % binding [4] did it give?
Answer: 85%

Question: Which % of control [5] does the source give for `CCC(=O)N1CCN(c2ccc(-n3c(=O)ccc4cnc5ccc(-c6cnc7ccccc7c6)cc5c43)cc2C(F)(F)F)CC1` here?
Answer: 77%

Question: Which results are given for `C=CC(=O)Nc1cc(-n2c(=O)ccc3cnc4ccc(-c5ccc(NS(C)(=O)=O)cc5)cc4c32)ccc1C`?
Answer: % of control ([6]; at 1 µM): 75%; % of control ([6]; at 10 µM): 100%

Question: How did the % of control [7] turn out when `O[C@H]1CC[C@H](Nc2ncc3nc(Nc4c(F)cc(F)cc4F)n([C@H]4CCOC4)c3n2)CC1` was run?
Answer: 99%

Question: How did the % of control [8] turn out when `O=C(NOC[C@H](O)CO)c1ccc(F)c(F)c1Nc1ccc(I)cc1F` was run?
Answer: 100%
